Changes are numbered by the printed parent chain. Calls of active or inactive are those of the source. The rule behind the calls is not given here.
Key:
[1] = target: T1, Short transient receptor potential channel 5 (Homo sapiens) (UniProt Q9UL62); test: Induction of S-nitrosylation of TRPC5 in HEK cells assessed as increase in Ca2+ level from extracellular space at 30 uM; assay type: cell-based; settings: HEK293
T1 sequence (whole entry): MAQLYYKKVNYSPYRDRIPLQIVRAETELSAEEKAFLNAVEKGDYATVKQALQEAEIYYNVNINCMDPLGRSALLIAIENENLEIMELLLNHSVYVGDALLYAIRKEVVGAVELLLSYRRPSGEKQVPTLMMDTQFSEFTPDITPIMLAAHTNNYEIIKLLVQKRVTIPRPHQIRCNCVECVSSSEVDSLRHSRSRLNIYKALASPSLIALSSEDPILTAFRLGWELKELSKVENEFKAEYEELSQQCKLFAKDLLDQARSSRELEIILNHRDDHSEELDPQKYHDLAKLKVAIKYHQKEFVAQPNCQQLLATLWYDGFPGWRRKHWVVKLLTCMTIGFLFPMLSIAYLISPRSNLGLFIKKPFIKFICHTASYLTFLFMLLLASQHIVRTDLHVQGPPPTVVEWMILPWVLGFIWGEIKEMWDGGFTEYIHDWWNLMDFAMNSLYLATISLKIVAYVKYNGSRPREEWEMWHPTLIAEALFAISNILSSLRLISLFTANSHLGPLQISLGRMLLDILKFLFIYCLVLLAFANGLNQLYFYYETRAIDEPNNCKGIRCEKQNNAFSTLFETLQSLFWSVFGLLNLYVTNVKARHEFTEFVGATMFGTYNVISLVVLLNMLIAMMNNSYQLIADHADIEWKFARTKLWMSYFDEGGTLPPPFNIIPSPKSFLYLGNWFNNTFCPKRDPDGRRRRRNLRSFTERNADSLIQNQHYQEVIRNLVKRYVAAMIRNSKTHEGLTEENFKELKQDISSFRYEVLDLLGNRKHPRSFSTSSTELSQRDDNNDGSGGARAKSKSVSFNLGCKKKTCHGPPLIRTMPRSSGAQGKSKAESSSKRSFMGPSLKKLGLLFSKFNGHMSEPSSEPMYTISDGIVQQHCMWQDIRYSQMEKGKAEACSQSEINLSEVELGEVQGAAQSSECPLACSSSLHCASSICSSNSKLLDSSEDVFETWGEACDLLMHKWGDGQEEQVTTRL

[2] = target: Transient receptor potential cation channel subfamily M member 2 (Homo sapiens) (UniProt O94759); test: Induction of TRPM2 S-nitrosylation in HEK cells assessed as increase in Ca2+ level from extracellular space at 30 uM; assay type: cell-based; settings: HEK293
[3] = system: T2, Short transient receptor potential channel 5 (Homo sapiens), Q9UL62 [C553S]; test: Decrease in TRPC5 C553S mutant S-nitrosylation in HEK cells assessed as inhibition of incorporation of DTNB-2Bio at 30 uM relative to control; assay type: cell-based; settings: HEK293
T2 sequence (whole entry): T1 sequence (whole entry) with C553S

[4] = target: T1, Short transient receptor potential channel 5 (Homo sapiens); test: Activation of TRPC5 expressed in BAEC expressing dominant negative mutant of TRPC5 assessed as increase in Ca2+ level from extracellular space at 100 uM
[5] = target: T1, Short transient receptor potential channel 5 (Homo sapiens); test: Induction of TRPC5 S-nitrosylation in chicken DT40 cells assessed as increase in Ca2+ level from extracellular space at 30 uM in presence of PLC-beta inhibitor U73122; assay type: cell-based
[6] = target: Transient receptor potential cation channel subfamily V member 4 (Homo sapiens) (UniProt Q9HBA0); test: Activation of TRPV4 in HEK cells assessed as increase in Ca2+ level from extracellular space at 10 uM; assay type: cell-based; settings: HEK293
HEK293 [7] = test: Activation of rat TRPV1 Cys616 mutant expressed in HEK cells assessed as increase in Ca2+ level from extracellular space at 10 uM; assay type: cell-based
[8] = target: T1, Short transient receptor potential channel 5 (Homo sapiens); test: Induction of S-nitrosylation of TRPC5 in HEK cells assessed as increase in Ca2+ level from extracellular space at 30 uM in presence of ascorbic acid; assay type: cell-based; settings: HEK293
[9] = target: T1, Short transient receptor potential channel 5 (Homo sapiens); test: Induction of S-nitrosylation of TRPC5 in HEK cells assessed as increase in Ca2+ level from extracellular space at 1 mM in presence of ascorbic acid; assay type: cell-based; settings: HEK293
[10] = target: T1, Short transient receptor potential channel 5 (Homo sapiens); test: Induction of S-nitrosylation of TRPC5 in HEK cells assessed as increase in Ca2+ level from extracellular space at 10 uM; assay type: cell-based; settings: HEK293
[11] = target: T1, Short transient receptor potential channel 5 (Homo sapiens); test: Induction of S-nitrosylation of TRPC5 in HEK cells assessed as inhibition of incorporation of DTNB-2Bio at 300 uM; assay type: cell-based; settings: HEK293
[12] = target: T1, Short transient receptor potential channel 5 (Homo sapiens); test: Activation of TRPC5 expressed in BAEC expressing TRPC5 siRNA assessed as increase in Ca2+ level from extracellular space at 300 uM
[13] = target: T1, Short transient receptor potential channel 5 (Homo sapiens); test: Induction of S-nitrosylation of TRPC5 in HEK cells assessed as increase in Ca2+ level from extracellular space at 300 uM; assay type: cell-based; settings: HEK293
HEK293 [14] = test: Induction of rat TRPV1 Cys621 mutant S-nitrosylation expressed in HEK cells assessed as increase in Ca2+ level from extracellular space at 0.1 to 1 mM; assay type: cell-based
[15] = target: T1, Short transient receptor potential channel 5 (Homo sapiens); test: Activation of TRPC5 expressed in BAEC expressing dominant negative mutant of TRPC5 assessed as increase in Ca2+ level from extracellular space at 300 uM

Transient receptor potential cation channel subfamily V member 4 (Homo sapiens), sequence (Q9HBA0 whole entry): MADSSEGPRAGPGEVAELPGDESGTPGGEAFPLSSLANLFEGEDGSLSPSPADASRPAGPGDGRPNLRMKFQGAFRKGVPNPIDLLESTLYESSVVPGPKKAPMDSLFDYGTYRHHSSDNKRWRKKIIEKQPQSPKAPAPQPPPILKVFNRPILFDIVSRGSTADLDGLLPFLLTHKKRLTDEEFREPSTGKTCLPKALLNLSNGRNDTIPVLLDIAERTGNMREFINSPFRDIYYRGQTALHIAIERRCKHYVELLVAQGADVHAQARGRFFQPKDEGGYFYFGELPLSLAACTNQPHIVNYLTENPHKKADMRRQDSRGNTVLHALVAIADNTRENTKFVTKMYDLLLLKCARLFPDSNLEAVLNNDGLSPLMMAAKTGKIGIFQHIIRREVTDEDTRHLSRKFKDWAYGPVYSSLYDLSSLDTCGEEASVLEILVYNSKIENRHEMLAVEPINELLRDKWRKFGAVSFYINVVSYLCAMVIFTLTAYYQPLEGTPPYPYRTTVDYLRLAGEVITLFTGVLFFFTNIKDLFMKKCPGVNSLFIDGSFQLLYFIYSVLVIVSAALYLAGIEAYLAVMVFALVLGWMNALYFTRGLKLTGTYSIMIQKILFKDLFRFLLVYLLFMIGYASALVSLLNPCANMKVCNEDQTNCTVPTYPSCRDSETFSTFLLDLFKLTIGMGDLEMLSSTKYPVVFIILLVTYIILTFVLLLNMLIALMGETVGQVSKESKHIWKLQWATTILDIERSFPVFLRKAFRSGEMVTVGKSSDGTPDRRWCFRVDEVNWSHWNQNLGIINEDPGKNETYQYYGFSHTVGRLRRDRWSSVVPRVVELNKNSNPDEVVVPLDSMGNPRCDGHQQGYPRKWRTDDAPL
Transient receptor potential cation channel subfamily M member 2 (Homo sapiens), sequence (O94759 whole entry): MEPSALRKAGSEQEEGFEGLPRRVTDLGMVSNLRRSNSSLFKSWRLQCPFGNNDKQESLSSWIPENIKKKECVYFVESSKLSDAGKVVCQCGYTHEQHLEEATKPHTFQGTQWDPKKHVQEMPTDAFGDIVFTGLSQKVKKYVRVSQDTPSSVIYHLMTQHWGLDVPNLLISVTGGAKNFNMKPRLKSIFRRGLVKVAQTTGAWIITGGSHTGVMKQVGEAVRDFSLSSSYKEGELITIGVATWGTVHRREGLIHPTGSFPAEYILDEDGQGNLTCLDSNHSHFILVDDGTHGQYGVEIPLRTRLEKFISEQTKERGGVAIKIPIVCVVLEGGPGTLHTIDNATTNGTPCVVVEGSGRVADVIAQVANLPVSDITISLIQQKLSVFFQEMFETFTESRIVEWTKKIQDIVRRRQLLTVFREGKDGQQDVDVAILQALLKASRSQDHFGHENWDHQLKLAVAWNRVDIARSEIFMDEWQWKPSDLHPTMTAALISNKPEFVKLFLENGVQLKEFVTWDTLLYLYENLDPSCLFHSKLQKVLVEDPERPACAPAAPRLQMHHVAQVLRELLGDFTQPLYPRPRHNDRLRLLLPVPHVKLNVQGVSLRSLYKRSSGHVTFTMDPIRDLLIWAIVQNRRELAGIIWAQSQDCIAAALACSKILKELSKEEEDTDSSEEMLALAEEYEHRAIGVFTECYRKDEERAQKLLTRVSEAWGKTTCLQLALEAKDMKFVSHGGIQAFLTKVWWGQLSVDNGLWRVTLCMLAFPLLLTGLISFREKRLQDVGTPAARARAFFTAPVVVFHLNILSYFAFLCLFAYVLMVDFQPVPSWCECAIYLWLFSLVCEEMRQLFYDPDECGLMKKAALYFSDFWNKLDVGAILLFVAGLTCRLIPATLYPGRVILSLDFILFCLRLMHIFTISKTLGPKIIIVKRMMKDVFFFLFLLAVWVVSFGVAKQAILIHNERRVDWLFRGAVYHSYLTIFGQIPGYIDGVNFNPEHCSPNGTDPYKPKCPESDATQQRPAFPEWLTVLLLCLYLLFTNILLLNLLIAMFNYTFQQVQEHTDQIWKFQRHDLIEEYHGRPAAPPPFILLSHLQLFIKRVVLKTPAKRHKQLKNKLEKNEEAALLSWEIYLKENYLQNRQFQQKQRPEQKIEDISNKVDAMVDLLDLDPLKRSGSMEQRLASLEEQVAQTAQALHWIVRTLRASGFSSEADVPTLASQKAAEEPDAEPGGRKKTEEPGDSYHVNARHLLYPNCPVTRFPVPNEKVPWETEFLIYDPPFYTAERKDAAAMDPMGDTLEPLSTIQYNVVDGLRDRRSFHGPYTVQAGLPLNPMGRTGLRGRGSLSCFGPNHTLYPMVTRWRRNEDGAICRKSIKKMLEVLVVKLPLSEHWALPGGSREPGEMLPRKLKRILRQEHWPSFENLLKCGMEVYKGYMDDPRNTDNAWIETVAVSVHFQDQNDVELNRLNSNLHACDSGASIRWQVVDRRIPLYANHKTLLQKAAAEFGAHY

Row | Activity [1] | Activity [2] | Activity [3] | Activity [4] | Activity [5] | Activity [6] | Activity [8] | Activity [9] | Activity [10] | Activity [11] | Activity [12] | Activity [13] | Activity [15] | Structure (SMILES) | Activity (HEK293 [7]) | Activity (HEK293 [14])
1 | Active | inactive | Active | inactive | Active | Active | Active | – | – | – | – | – | – | O=[N+]([O-])c1ccc(SSc2ccc([N+](=O)[O-])cn2)nc1 | inactive | –
2 | – | – | – | – | – | – | – | inactive | Active | Active | inactive | Active | inactive | CC(=O)N[C@@H](C(=O)O)C(C)(C)SN=O (racemic) | – | inactive

Source: ChEMBL document CHEMBL1250444, “Nitric oxide activates TRP channels by cysteine S-nitrosylation” (Nat Chem Biol, 2006)
